These results are taken from PubChem BioAssay AID2050 (NMMLSC, 2009).

Active and inactive are the calls of the source.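 Rule for the calls: active = EC50 at or below 30 µM together with a response span of at least a set limit; inactive = the rest.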

In the first assay the target is GTPase HRas (Homo sapiens) (UniProt P01112). In words: inhibition of fluorescent GTP binding to activated Ras – biochemical, pyrazoline analogs, multiplex bead flow cytometry, SAR follow-up (AID 2050). Conditions: GST-Ras beads, Bodipy-FL-GTP binding. (In flow cytometry, cells or beads pass a laser one at a time.)
GTPase HRas (Homo sapiens), sequence (P01112 whole entry, looked up): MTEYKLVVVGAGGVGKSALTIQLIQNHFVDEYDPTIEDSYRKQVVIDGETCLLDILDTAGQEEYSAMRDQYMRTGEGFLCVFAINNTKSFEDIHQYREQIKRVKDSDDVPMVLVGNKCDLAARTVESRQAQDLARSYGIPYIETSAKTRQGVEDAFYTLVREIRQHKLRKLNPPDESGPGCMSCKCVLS
As to `COc1ccc(C2=NN(c3ccccc3F)C(c3ccc(F)cc3)C2)cc1` (stereo not drawn), the EC50 was > 30 µM (inactive).

In the case of `COc1ccc(C2CC(c3cccnc3)=NN2c2ccc(S(N)(=O)=O)cc2)cc1` (stereo not drawn), the EC50 was > 30 µM (inactive). In the case of `Cc1cccc(N2N=C(c3ccccc3)CC2c2ccccc2)c1` (stereo not drawn), the EC50 is > 30 µM (inactive). Consider `CCc1ccc(C2=NN(c3ccc(S(N)(=O)=O)cc3)C(c3ccc(F)cc3)C2)cc1` (stereo not drawn), for which the EC50 was > 30 µM (inactive). For `NS(=O)(=O)c1ccc(N2N=C(c3ccccc3)CC2c2ccccc2)cc1` (stereo not drawn), the EC50 is > 30 µM (inactive).

In the case of `COc1ccc(C2=NN(c3cccc(F)c3)C(c3ccc(Cl)cc3)C2)cc1` (stereo not drawn), the EC50 was > 30 µM (inactive).

Consider `COc1ccc(C2CC(c3cccc(C)c3)=NN2c2ccc(S(N)(=O)=O)cc2)cc1` (stereo not drawn), for which the EC50 is > 30 µM (inactive). For `NS(=O)(=O)c1ccc(N2N=C(c3ccccc3)CC2c2cccc(Br)c2)cc1` (stereo not drawn), the EC50 was > 30 µM (inactive).

With `COc1ccc(C2=NN(c3ccc(S(N)(=O)=O)cc3)C(c3ccc(OC)cc3)C2)cc1` (stereo not drawn), the EC50 was > 30 µM (inactive). On the same count and under the same terms, to `COc1ccc(C2CC(c3cccc(N(C)C)c3)=NN2c2ccc(S(N)(=O)=O)cc2)cc1` (stereo not drawn) belongs > 30 µM (inactive). Turning to `Cc1ccc(-c2cc(C(F)(F)F)nn2-c2ccc(S(N)(=O)=O)cc2)cc1`, the EC50 was > 30 µM (inactive). For `Cc1ccccc1C1CC(c2ccccc2)=NN1c1ccc(S(N)(=O)=O)cc1` (stereo not drawn), the EC50 is > 30 µM (inactive). Take `COc1ccc(C2CC(c3ccccc3)=NN2c2ccc(Cl)c(C(=O)O)c2)cc1` (stereo not drawn): the EC50 is > 30 µM (inactive). Same read-out and setting: then `CC(=O)Oc1ccc(C2=NN(c3ccccc3)C(c3ccccc3)C2)cc1` (stereo not drawn), with > 30 µM (inactive); and `Cc1ccc(C2CC(c3ccccc3)=NN2c2ccc(S(N)(=O)=O)cc2)cc1` (stereo not drawn), with > 30 µM (inactive); and `COc1ccc(C2CC(c3ccccc3)=NN2c2ccc([N+](=O)[O-])cc2)cc1` (stereo not drawn), with > 30 µM (inactive). For `NS(=O)(=O)c1ccc(N2N=C(c3ccccc3)CC2c2ccc(Br)cc2)cc1` (stereo not drawn), the EC50 was > 30 µM (inactive).

Consider `COc1ccccc1C1CC(c2ccccc2)=NN1c1ccc(S(N)(=O)=O)cc1` (stereo not drawn), for which the EC50 is > 30 µM (inactive). With `COc1ccc(C2CC(c3cccc(F)c3)=NN2c2ccc(S(N)(=O)=O)cc2)cc1` (stereo not drawn), the EC50 is > 30 µM (inactive). Regarding `COc1ccc(C2CC(c3cccc(OC)c3)=NN2c2ccc(S(N)(=O)=O)cc2)cc1` (stereo not drawn), the EC50 was > 30 µM (inactive). `COc1ccc(C2CC(c3ccc(C)cc3)=NN2c2ccc(S(N)(=O)=O)cc2)cc1` (stereo not drawn): the EC50 was > 30 µM (inactive). In the case of `COc1ccc(C2CC(c3ccccc3OC)=NN2c2ccc(S(N)(=O)=O)cc2)cc1` (stereo not drawn), the EC50 is > 30 µM (inactive). Regarding `O=S(=O)(c1ccc(N2N=C(c3ccc(Br)cc3)CC2c2ccccc2)cc1)C(F)F` (stereo not drawn), the EC50 entry is “inactive”. As to `COc1ccc(C2CC(c3cccs3)=NN2c2ccc(S(N)(=O)=O)cc2)cc1` (stereo not drawn), the EC50 is > 30 µM (inactive).

For `COc1ccc(C2=NN(c3ccc(Cl)c(Cl)c3)C(c3ccc(OC)cc3)C2)cc1` (stereo not drawn), the EC50 is > 30 µM (inactive). On to `COc1ccc(C2CC(c3ccsc3)=NN2c2ccc(S(N)(=O)=O)cc2)cc1` (stereo not drawn), for which the EC50 was > 30 µM (inactive). For the compound `CN(C)c1ccc(C2CC(c3ccc(Br)cc3)=NN2c2ccccc2)cc1` (stereo not drawn), the EC50 was > 30 µM (inactive).

Staying with this assay, now noted: GST-Ras beads, Bodipy-FL-GTP binding, measured here: Ki calculated from EC50.
`O=S(=O)(c1ccc(N2N=C(c3ccc(Br)cc3)CC2c2ccccc2)cc1)C(F)F` (stereo not drawn): the Ki is 0.18 µM.

A word on the EC50: it is the concentration at which the effect is half-maximal. The term Ki denotes a dissociation constant, usually derived from enzyme kinetics or from competition with a known ligand.
